Columns and labels:
Assay type in all cases: in vivo
[1] = tested on: nymphs of the white-backed planthopper; assay: Spray treatment of rice stems and leaves, survival of white-backed planthopper nymphs
Protocol: (§1) According to the second preferred embodiment of the present invention, the applied p-Fluorophenoxyacetic acids have concentrations of 20 mg/L and 100 mg/L. The rice is cultivated through the nutrient solution, and planted by each individual rice plant; the p-Fluorophenoxyacetic acid is prepared with water to have a certain concentration (20 mg/L or 100 mg/L), and thereafter stems and leaves of the rice are treated with spraying through a small sprayer; and tap water is adopted as a control group. After drops on the stems and leaves of the rice are totally dry, a special glass cover (with a diameter of 4 cm, a height of 8 cm, and 48 holes having a diameter of 0.8 mm uniformly provided on a wall) is placed on a stem of each individual rice plant, and 15 newly-hatched nymphs of the brown planthopper or the white-backed planthopper are introduced into each glass cover, wherein a top part of each glass cover is sealed by a circular sponge. The experiment is conducted in a phytotron with a temperature of 28±2° C., a humidity of 70-80% and 14 hours of illumination, survival numbers of the nymphs of the brown planthopper and the white-backed planthopper on each plant are recorded daily, and the experiment is repeated for 10 times.

[2] = tested on: nymphs of the white-backed planthopper; assay: Stomach toxicity in planthopper artificial diet; conditions: for survival rate of the nymphs of the white-backed planthopper: artificial diet
Description: In order to exclude possible influences of the p-Fluorophenoxyacetic acid itself on a survival rate of nymphs of the rice planthoppers, the third preferred embodiment of the present invention measures stomach toxicity and contact toxicity of the p-Fluorophenoxyacetic acids having different concentrations on the nymphs of the rice planthoppers. In the experiment for measuring the stomach toxicity of the p-Fluorophenoxyacetic acid on the nymphs of the rice planthoppers, the p-Fluorophenoxyacetic acids, having concentrations of 5 mg/L, 20 mg/L and 50 mg/L, are respectively added into planthopper artificial diets, and another planthopper artificial diet not containing the p-Fluorophenoxyacetic acid is adopted as control. The planthopper artificial diets containing the p-Fluorophenoxyacetic acids of different concentrations are respectively wrapped by a Parafilm sealing film and then placed at two ends (20 μL at one end) of a glass two-way tube having a diameter of 4 cm and a height of 8 cm, and 15 newly-hatched nymphs of the white-backed planthopper are introduced into each tube; wherein the glass two-way tube, in which the planthopper artificial diet not containing the p-Fluorophenoxyacetic acid is placed, is adopted as a control group. All the glass two-way tubes are placed in a phytotron (with a temperature of 28° C. and 12 hours of illumination), the artificial diet in each tube is changed once a day, and the survival number of the nymphs of the white-backed planthopper in each tube is recoded daily. The experiment is repeated for 10 times.

[3] = tested on: contents of 4-hydroxybenzoic acid and γ-aminobutyric acid in the rice; assay: Induced mechanism: contents of defense compounds in rice after root treatment; conditions: 5 mg/L in nutrient solution, 72 hours after treating
Protocol: According to the fourth preferred embodiment of the present invention, the applied p-Fluorophenoxyacetic acid has a concentration of 5 mg/L. The rice is cultivated through the nutrient solution, and planted by each individual rice plant; the p-Fluorophenoxyacetic acid is added into the nutrient solution of the rice until a final concentration is 5 mg/L, and another nutrient solution without adding the p-Fluorophenoxyacetic acid is adopted as a control group. The experiment is repeated for 5 times and conduced in a phytotron with a temperature of 28±2° C., a humidity of 70-80%, and 14 hours of illumination. […] The 4-hydroxybenzoic acid belongs to a phenolic acid defense compound, and the γ-aminobutyric acid belongs to a non-protein amino acid, which have direct toxicity effects on the insect pests and are able to influence a peripheral nervous system of the insects. Treating the rice with the p-Fluorophenoxyacetic acid is able to increase contents of the defense compounds, thereby generating a negative effect on the insect pests and increasing a resistance of the rice against the insect pests.

[4] = tested on: nymphs of the brown planthopper; assay: Root absorption treatment of rice, survival of brown planthopper nymphs; conditions: for survival rate of the brown planthopper: 8th day
Protocol: (§2) According to the first preferred embodiment of the present invention, the applied p-Fluorophenoxyacetic acids have concentrations of 1 mg/L and 10 mg/L. The rice is cultivated through the nutrient solution, and planted by each individual rice plant; the p-Fluorophenoxyacetic acid is added into the nutrient solution until a final concentration is 1 mg/L or 10 mg/L; and the nutrient solution without adding the p-Fluorophenoxyacetic acid is adopted as a control group. After treating with the p-Fluorophenoxyacetic acid for 12 hours, a special glass cover (with a diameter of 4 cm, a height of 8 cm, and 48 holes having a diameter of 0.8 mm uniformly provided on a wall) is placed on a stem of each individual rice plant, and 15 newly-hatched nymphs of the brown planthopper or the white-backed planthopper are introduced into each glass cover, wherein a top part of each glass cover is sealed by a circular sponge. The experiment is conducted in a phytotron with a temperature of 28±2° C., a humidity of 70-80% and 14 hours of illumination, survival numbers of the nymphs of the brown planthopper or the white-backed planthopper on each plant are recorded daily, and the experiment is repeated for 10 times.

[5] = tested on: Third-instar nymphs of the white-backed planthopper; assay: Contact toxicity, spotting on third-instar nymphs; conditions: for survival rates of the nymphs of the planthoppers: spotted 1 μL
Protocol: In the experiment for measuring the contact toxicity of the p-Fluorophenoxyacetic acid on the nymphs of the rice planthoppers, the p-Fluorophenoxyacetic acids respectively having concentrations of 5 mg/L, 20 mg/L, and 50 mg/L are adopted, and distilled water not containing the p-Fluorophenoxyacetic acid is adopted as a control group. Third-instar nymphs of the white-backed planthopper, being narcotized by carbon dioxide, are spotted with the p-Fluorophenoxyacetic acid having the corresponding concentration or the distilled water (1 μL for each planthopper); after waking up, the planthoppers are fed on rice plants having an age of 30 days, wherein 15 planthoppers are fed on each rice plant; and the rice is placed in a phytotron with a temperature of 28±2° C., a humidity of 70-80% and 14 hours of illumination. The experiment is repeated for 10 times. Survival numbers of the nymphs of the planthoppers are observed and recorded respectively 24 hours and 48 hours after treatment.

[6] = tested on: nymphs of the white-backed planthopper; assay: Root absorption treatment of rice, survival of white-backed planthopper nymphs
Protocol: as §2

[7] = tested on: nymphs of the brown planthopper; assay: Spray treatment of rice stems and leaves, survival of brown planthopper nymphs; conditions: for survival rate of the brown planthopper: 8th day
Protocol: as §1

[8] = from the 2nd day after treating, FIG. 2

## O=C(O)COc1ccc(F)cc1 [p-Fluorophenoxyacetic acid]
[1]; 20 mg/L, 8th day
  survival rate of the white-backed planthopper: 66.1%
[1]; 100 mg/L, 8th day
  survival rate of the white-backed planthopper nymphs: 23.2%
[1]; [8]
  survival rates of the nymphs of the white-backed planthopper, course: decreased obviously
[2]; 5 mg/L, 2nd day
  survival rate of the nymphs of the white-backed planthopper: 85.5%
[2]; 5 mg/L, 4th day
  survival rate of the nymphs of the white-backed planthopper: 58.6%
[2]; 20 mg/L, 2nd day
  survival rate of the nymphs of the white-backed planthopper: 87.4%
[2]; 20 mg/L, 4th day
  survival rate of the nymphs of the white-backed planthopper: 54.3%
[2]; 50 mg/L, 2nd day
  survival rate of the nymphs of the white-backed planthopper: 81.3%
[2]; 50 mg/L, 4th day
  survival rate of the nymphs of the white-backed planthopper: 57.6%
[2]; artificial diet, 5, 20 and 50 mg/L
  stomach toxicity on the planthoppers: no stomach toxicity
[3]
  content of the 4-hydroxybenzoic acid of the experimental group versus the control group: 2.12 times
  content of the γ-aminobutyric acid of the experimental group versus the control group: 2.86 times
[4]; general statement in the summary, rice planthoppers, concentration not given
  survival rate of nymphs of the rice planthoppers, maximum decrease: below 10%
[4]; root absorption, 1 mg/L in nutrient solution
  survival rate of the brown planthopper: 35.1%
[4]; root absorption, 10 mg/L in nutrient solution
  survival rate of the brown planthopper: 1.5%
[4]; root absorption, from the 2nd day after treating, FIG. 1
  survival rates of the nymphs of the brown planthopper, course: decreased obviously
[5]; 5 mg/L, 24 hours after treating
  survival rates of the nymphs of the planthoppers: 92.0%
[5]; 5 mg/L, 48 hours after treating
  survival rates of the nymphs of the planthoppers: 92.0%
[5]; 20 mg/L, 24 hours after treating
  survival rates of the nymphs of the planthoppers: 93.1%
[5]; 20 mg/L, 48 hours after treating
  survival rates of the nymphs of the planthoppers: 91.6%
[5]; 50 mg/L, 24 hours after treating
  survival rates of the nymphs of the planthoppers: 92.0%
[5]; 50 mg/L, 48 hours after treating
  survival rates of the nymphs of the planthoppers: 90.8%
[5]; spotted 1 μL, 5, 20 and 50 mg/L
  contact toxicity on the planthoppers: no contact toxicity
[6]; 1 mg/L in nutrient solution, 8th day
  survival rate of the white-backed planthopper: 41.3%
[6]; 10 mg/L in nutrient solution, 8th day
  survival rate of white-backed planthopper nymphs: 3.1%
[6]; from the 2nd day after treating, FIG. 1
  survival rates of the nymphs of the white-backed planthopper, course: decreased obviously
[7]; 20 mg/L
  survival rate of the brown planthopper: 60.3%
[7]; 100 mg/L
  survival rate of the brown planthopper: 19.2%
[7]; [8]
  survival rates of the nymphs of the brown planthopper, course: decreased obviously

From patent publication US20170367330A1, “Method for stimulating induced insect resistance of rice” (ZHENJIANG UNIVERSITY, priority 2015, published 2017)
